Experimental data taken from US20190112578A1, “Derivation and Self-Renewal of Multipotent Cells and Uses Thereof” (IsletOne AB, priority 2016, published 2019).

What was measured:
Assay type in all cases: cell-based
[1] = system: embryonic rat cardiac mesenchymal stem cells and rat bone marrow; test: Derivation of Isl1+ cells from rat mesenchymal stem cells on laminins in Wnt-medium (Isl1 immunostaining); conditions: on LN-521 in combination with hypoxia, two weeks in culture (5 passages)
Description: In order to further improve feeder free culturing systems where the origin and expansion of multipotent cells could be followed, the inventors synthesized a plasmid construct comprising parts of the Isl1-promotor region linked to the fluorescent marker green fluorescent protein (GFP). The plasmid was introduced into the cells by means of electroporation. Mesenchymal cells (i) derived from rat embryonic hearts, (ii) obtained from rat bone marrow, (iii) obtained from the bone marrow of young healthy donors, (iv) obtained from human cord blood and other types of perinatal tissue, (v) isolated from human amniotic sources, (v) isolated from human adult cardiac tissue were labeled with the Isl1 gene construct concomitant to the addition of Wnt-containing medium (100 ng/ml Wnt-3a and […] BIO). […] In culture the cells grew to confluency and were passaged every other day. At each passage, cells were analysed immunohistochemically for the expression of Isl1.
For each experiment 10 pregnant sprague-dawley rats (gestational day, GD, 13 to 14) were used. The rats were euthanized in a CO2 chamber after which the whole embryos (approximately 10 embryos/rat) were removed through a low midline abdominal incision. From each embryo the heart was removed under microscope, minced into small pieces and rinsed repetitively with Hank's buffered salt solution (HBSS) (GibcoBRL, NY, USA). […]

multipotent cells (MSCs) = test: Growth curves of multipotent cells (MSCs); conditions: LN-521 under hypoxia versus standard conditions (plastic under normoxia)
Description: Cells can be grown under hypoxic conditions using a variety of methods. Normally, hypoxic conditions for cell culturing are defined as culturing of cells in an atmosphere containing 5% or less of oxygen.

Isl1 cells = test: qRT-PCR of multipotency and differentiation markers in cells grown under various conditions; conditions: LN-521 under hypoxia versus LN-521 normoxia, plastic hypoxia

## LN-521: laminin heterotrimeric glycoprotein comprising an α5 chain, coated on cell culture plastic
[1]
  cells expressing Isl1: 80±15%
Multipotent cells (MSCs)
  proliferation (growth curve): significantly faster
Isl1 cells
  Isl1, KDR and Nkx_2_5 mRNA transcripts: significantly higher
  Troponin T2 transcripts: lower
